The values that follow are results of earlier work, collected in PMC12154426, “TPP-Based Nanovesicles Kill MDR Neuroblastoma Cells and Induce Moderate ROS Increase, While Exerting Low Toxicity Towards Primary Cell Cultures: An In Vitro Study” (International Journal of Molecular Sciences, 2025).

For one data set, the system named is Hela. Also on record: method as in PMID 36084362. The note with it: 24 h exposure, cited from earlier work.
Details of data set [1]: method as in PMID 36084362. The following applies: MFC-7, 24 h exposure, cited from earlier work.
Another data set concerns A-375 cancer cells. Also on record: method as in PMID 28151482. The following applies: 24 h exposure; 30 µM vemurafenib, 50 µM TRAM-34, or their combination; cited from earlier work.

Like-named read-outs stand apart in the source and are kept apart here.

As to “2,9,16,23-tetrakis(N-(N-butyl-4-triphenyl-phosphonium)-pyridine-4-yloxy) Zn(II) Pc [compound 3]”, the IC50 (commonly the concentration at which inhibition is half-maximal) in the data set on Hela (PDT/SDT) was 12.7 µM; in the data set with Hela (PDT), 21.8 µM; in the data set on Hela (SDT), 14.3 µM; in data set [1] (PDT/SDT), 13.2 µM; in data set [1] (PDT), 43.3 µM; in data set [1] (SDT), 18.2 µM.

For “2,9,16,23-tetrakis-(N-(N-butyl-4-triphenyl-phosphonium)-morpholino) Zn(II) Pc [compound 4]”, the IC50 was 14.4 µM with Hela (PDT/SDT); 25.6 µM in the data set with Hela (PDT); 17.2 µM in the data set with Hela (SDT); 15.5 µM in data set [1] (PDT/SDT); 45 µM in data set [1] (PDT); 20.5 µM in data set [1] (SDT).

Regarding `Clc1ccccc1C(c1ccccc1)(c1ccccc1)n1cccn1` [TRAM-34], the “ROS increase with respect to the control” value in the data set with A-375 cancer cells is reported as about 30%.

In the case of `CCCS(=O)(=O)Nc1ccc(F)c(C(=O)c2c[nH]c3ncc(-c4ccc(Cl)cc4)cc23)c1F` [vemurafenib], the “ROS increase with respect to the control” value with A-375 cancer cells was “about 38%”.
